Source: paper PMC9184653, “LDL receptor-related protein 1 (LRP1), a novel target for opening the blood-labyrinth barrier (BLB)” (Signal Transduction and Targeted Therapy, 2022)
Where no end group is shown, it is not given here.

Tests used:
LRP1 [1] = target: T1, LRP1 (Mus musculus, UniProt Q91ZX7); experiment: immunofluorescence imaging of cochleae after intravenous injection (distribution, colocalization with LRP1); type: in vivo; conditions: i.v. injection
T1 construct: from tissue; host or cells: cochleae of C57BL/6J mice
T1 sequence (Q91ZX7 20-4545): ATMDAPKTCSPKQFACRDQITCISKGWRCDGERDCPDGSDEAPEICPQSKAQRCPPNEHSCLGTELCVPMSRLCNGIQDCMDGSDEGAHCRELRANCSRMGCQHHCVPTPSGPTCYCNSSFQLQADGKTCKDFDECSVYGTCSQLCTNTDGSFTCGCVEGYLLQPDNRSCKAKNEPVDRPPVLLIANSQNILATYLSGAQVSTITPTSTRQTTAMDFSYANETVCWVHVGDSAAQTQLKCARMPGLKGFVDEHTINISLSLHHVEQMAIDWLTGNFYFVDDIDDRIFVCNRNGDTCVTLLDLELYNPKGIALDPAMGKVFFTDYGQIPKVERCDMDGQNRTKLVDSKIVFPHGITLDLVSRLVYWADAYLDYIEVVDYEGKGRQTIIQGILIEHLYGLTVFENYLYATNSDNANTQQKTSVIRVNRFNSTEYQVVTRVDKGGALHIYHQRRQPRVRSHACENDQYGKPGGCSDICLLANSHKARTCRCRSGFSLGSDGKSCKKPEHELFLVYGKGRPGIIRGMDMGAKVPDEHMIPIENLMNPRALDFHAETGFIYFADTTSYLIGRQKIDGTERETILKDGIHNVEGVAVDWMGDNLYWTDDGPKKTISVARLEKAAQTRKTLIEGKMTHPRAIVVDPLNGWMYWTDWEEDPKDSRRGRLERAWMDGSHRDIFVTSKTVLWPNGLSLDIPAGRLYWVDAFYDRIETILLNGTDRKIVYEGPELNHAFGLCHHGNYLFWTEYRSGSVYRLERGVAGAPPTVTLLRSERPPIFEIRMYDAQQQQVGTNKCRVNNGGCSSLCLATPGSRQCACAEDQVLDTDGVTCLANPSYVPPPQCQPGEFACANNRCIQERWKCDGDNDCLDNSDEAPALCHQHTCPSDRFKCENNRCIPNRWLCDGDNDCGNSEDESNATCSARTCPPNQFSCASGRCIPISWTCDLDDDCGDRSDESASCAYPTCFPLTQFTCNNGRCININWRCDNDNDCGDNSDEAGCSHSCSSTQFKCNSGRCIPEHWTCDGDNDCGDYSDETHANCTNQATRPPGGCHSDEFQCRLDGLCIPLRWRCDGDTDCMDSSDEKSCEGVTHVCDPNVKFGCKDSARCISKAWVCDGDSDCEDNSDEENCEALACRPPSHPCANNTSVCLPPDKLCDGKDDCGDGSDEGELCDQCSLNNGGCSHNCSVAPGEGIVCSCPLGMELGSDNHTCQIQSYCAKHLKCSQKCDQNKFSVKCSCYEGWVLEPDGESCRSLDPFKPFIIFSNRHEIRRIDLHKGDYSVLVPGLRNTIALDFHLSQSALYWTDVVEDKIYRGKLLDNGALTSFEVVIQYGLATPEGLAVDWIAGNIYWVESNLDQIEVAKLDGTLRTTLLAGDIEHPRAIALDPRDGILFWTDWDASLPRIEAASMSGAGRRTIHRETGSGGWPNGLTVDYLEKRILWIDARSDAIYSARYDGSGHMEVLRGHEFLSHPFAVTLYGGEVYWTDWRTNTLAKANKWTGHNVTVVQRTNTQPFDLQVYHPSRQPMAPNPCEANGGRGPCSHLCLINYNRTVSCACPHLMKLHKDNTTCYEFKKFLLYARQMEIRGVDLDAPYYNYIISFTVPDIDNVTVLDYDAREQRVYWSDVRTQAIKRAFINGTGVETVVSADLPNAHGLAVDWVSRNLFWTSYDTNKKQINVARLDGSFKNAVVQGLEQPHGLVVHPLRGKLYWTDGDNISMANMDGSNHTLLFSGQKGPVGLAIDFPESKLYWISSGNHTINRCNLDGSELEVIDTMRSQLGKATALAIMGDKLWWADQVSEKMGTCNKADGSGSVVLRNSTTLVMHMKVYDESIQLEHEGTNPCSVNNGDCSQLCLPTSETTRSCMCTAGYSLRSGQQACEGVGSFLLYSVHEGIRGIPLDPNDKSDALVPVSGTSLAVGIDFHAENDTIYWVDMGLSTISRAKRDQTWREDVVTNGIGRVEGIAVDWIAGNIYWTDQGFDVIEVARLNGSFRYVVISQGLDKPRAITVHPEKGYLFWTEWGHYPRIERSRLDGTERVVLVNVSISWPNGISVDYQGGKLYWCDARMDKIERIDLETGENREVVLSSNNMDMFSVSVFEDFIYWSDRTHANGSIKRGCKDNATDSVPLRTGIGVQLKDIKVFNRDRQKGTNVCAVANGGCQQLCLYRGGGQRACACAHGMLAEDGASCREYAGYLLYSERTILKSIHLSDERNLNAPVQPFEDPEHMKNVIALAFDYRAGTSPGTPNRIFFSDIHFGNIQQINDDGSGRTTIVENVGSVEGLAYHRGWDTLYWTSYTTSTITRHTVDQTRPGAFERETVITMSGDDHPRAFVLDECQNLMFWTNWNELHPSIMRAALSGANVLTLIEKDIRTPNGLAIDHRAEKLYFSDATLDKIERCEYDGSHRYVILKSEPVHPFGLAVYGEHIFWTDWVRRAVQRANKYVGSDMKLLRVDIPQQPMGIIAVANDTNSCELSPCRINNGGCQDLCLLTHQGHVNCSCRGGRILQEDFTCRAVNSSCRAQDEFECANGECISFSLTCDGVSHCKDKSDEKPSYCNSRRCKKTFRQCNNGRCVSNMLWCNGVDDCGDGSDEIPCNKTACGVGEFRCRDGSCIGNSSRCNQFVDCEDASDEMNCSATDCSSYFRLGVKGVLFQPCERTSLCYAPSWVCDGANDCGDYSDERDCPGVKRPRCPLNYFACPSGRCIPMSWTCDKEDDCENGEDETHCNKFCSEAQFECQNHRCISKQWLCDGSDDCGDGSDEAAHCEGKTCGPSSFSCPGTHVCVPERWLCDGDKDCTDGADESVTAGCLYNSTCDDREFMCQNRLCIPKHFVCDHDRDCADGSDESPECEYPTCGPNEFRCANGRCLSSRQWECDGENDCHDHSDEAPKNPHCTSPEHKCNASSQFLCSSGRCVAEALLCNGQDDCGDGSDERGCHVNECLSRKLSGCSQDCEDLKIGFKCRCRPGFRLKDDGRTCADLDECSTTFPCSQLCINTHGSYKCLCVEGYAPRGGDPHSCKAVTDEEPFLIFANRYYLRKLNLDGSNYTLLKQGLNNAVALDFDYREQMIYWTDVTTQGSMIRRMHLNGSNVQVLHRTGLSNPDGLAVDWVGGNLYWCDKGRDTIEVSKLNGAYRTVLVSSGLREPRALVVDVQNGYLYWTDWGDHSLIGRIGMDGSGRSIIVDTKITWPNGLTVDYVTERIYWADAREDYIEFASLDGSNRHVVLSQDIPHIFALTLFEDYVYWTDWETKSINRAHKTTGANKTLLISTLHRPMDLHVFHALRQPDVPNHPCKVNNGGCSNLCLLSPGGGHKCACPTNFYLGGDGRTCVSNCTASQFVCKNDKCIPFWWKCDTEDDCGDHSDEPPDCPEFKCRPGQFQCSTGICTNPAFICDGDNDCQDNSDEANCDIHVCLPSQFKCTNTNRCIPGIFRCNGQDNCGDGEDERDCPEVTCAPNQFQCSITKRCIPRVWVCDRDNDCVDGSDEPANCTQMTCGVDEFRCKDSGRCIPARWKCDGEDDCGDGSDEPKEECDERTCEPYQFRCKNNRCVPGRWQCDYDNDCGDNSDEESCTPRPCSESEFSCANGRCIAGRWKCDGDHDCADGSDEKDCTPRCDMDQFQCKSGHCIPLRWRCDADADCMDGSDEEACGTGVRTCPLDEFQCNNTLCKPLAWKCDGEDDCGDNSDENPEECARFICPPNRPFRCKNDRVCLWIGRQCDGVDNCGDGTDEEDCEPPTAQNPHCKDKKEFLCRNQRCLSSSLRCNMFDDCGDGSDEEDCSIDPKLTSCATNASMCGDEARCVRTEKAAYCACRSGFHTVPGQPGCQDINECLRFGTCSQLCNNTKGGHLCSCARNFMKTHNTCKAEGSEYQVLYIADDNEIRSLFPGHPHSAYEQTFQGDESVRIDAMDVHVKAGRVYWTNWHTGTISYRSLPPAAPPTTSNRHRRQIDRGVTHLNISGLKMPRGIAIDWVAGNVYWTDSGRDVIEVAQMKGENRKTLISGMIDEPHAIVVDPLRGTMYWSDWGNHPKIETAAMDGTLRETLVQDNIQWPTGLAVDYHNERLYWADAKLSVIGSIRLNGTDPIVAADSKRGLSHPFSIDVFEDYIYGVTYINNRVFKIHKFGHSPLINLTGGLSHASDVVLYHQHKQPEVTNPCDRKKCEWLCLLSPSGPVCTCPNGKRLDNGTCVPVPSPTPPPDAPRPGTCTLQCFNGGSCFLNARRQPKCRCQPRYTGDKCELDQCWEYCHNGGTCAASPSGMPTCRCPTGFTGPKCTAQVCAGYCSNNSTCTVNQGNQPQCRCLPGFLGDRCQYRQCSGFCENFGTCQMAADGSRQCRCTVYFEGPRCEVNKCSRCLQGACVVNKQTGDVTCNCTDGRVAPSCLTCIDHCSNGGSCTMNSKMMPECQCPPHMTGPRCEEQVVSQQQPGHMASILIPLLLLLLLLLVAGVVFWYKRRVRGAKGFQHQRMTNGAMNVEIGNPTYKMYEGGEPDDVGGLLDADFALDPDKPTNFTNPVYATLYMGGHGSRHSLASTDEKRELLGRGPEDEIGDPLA
Protocol: (§1) To classify the roles of LRP1 in the transportation of IETP2 to the inner ear, the binding affinity of IETP2 to LRP1 was first determined using biolayer interferometry (BLI, Fig. 2d). […] SV was further imaged from another view. […] The Manders’ colocalization coefficients (MCCs) of LRP1 and IETP2 in IHCs, ECs, SP cells, and SGNs were 0.71515, 0.64284, 0.56482, and 0.70552, respectively.
Four-week-old C57BL/6J mice of either sex were harvested 50 min and 2 h post-injection. Cochleae were fixed in 4% paraformaldehyde at 4 °C for 8 h and decalcified in 4% EDTA for 4 days at room temperature (RT). Parts of the cochleae were dissected into pieces containing the basilar membrane (BM), organ of Corti (OC) and stria vascularis (SV) from the apex to the hook region and then used for whole-mount immunofluorescence. Other parts of the cochleae were dehydrated using a graded sucrose solution (15% and 30%; 3 h for each grade) at RT, embedded in optimum cutting temperature (OCT) compound for 5 h at RT, frozen for 1 h at −20 °C and sectioned with a freezing microtome (Leica CM1900) at an 8 μm thickness.
For whole-mount and cross-section immunofluorescence, tissues were incubated with 0.1% Triton X-100 and blocked with 10% donkey serum for 2 h at RT before the application of the primary antibodies. […]

LRP1 [2] = target: LRP1 (Homo sapiens, UniProt Q07954); experiment: biolayer interferometry (BLI) binding of IETP2 to LRP1; conditions: kinetic analysis, read-out: dissociation constant (KD) of IETP2 binding to LRP1
Source text: Gly-Cy5.5 served as a negative control. d Kinetic analysis of IETP2 binding to LRP1. […] Scale bars: e, j, o 100 µm, y, z 50 µm, others 10 µm.)
as §1

mouse cochleae = experiment: in vivo and ex vivo fluorescence imaging of cochlear uptake; conditions: IETP2-Cy5.5, i.v., BALB/c nude mice
Source text: To validate whether the selected IETPs could cross the BLB and to evaluate the inner ear-targeting efficacy, IETPs were covalently conjugated with the fluorescent dye Cy5.5 and intravenously injected into mice. In vivo and ex vivo fluorescence imaging of cochleae was used for evaluation. […] The IETP2 signal was visualized with in vivo fluorescence imaging (Fig. 2c). Compared to that in the brain and muscle, the signal of IETP2 detected in the cochleae was much stronger (Fig. 2c). […] Therefore, IETP2 was selected for the subsequent experiments.
BALB/c nude mice (4 weeks old, either sex) were divided into three groups (5 mice for each group). […] After the indicated times, the animals were anesthetized with isoflurane and subjected to live animal imaging (IVIS Lumina III, Caliper LifeSciences, MA, USA). The excitation/emission filter was set at 625/700 nm, and images were taken with an interval of 20 min post-injection. To validate the uptake efficiency of different IETPs, mice were sacrificed 1 h post-injection, and the cochleae were collected and imaged. […] The time-dependent uptake of IETP2 in mouse cochleae was assessed at a series of time points (1, 1.5, 2, and 2.5 h) with 3 mice at each time point for each group. Collected images were analyzed using Living Image software (IVIS Imaging System, 4.5.5).

C57BL/6J mice = experiment: ototoxicity evaluation by auditory brainstem response (ABR) testing; type: in vivo, mouse; conditions: 6 mice, 12 ears, 7- and 14-days post-administration
Protocol: Auditory brainstem response (ABR) testing was conducted in a standard soundproof chamber for animal use. Mice were anesthetized with a mixture of isoflurane (Keyue Life Science Co., Ltd.) and air via a respirator for animal use (Medical Supplies and Services Int., Ltd.) and an aquarium air pump (HAILEA, A00–5505). The final concentration of isoflurane was 2% at a flow rate of 1.5. Circulating heating pads were placed under the mice to maintain body temperature at 37 °C. ABRs were recorded with a Tucker Davis Technologies (TDT) RZ6 instrument, and the sound was delivered by a calibrated loudspeaker (TDT, MF1 2356).
For ABR testing, needle electrodes were inserted beneath the skin. The recording electrode was inserted at the vertex, the reference electrode was inserted at the pinna, and the ground electrode was inserted near the tail. The ABR stimuli were frequency-specific tone pips at frequencies from 1 kHz to 32 kHz with a duration of 5 ms (0.5 ms rise-fall delivered at 21.1/sec), and each response was amplified 10,000-fold with a filter passband of 100 Hz to 3 kHz and averaged over 1024 times. The signal started at 90 dB sound pressure level (SPL) with a step of 10 dB and decreased to 10 dB SPL at frequencies of 4, 8, 16, 24, and 32 kHz for mice. The threshold was defined as the lowest dB SPL with an identifiable and repeatable wave I for mice. […]

pig cochleae = experiment: pig cochlear immunofluorescence imaging after intravenous injection; type: in vivo; conditions: IETP2 labeled with 5-TAMRA or Cy5.5, earlobe vein injection, 2 h post-injection
Protocol: To further test the generality of IETP2 in large mammals, IETP2 labeled with 5-TAMRA or Cy5.5 was injected into pigs via earlobe veins. Two hours post-injection, the pigs were sacrificed (Supplementary Figs. S5 and S6, representative images of three independent experiments).
The zoomed-in OC images in the white dotted rectangle in f.
Images from the IETP2-5-TAMRA injection group. […] Images from the 5-TAMRA injection group. […] The setting parameters for the microscope (including the excitation intensity and emission gain) remained consistent throughout the experiments. c. […] Images of pig cochleae injected with free Cy5.5 (2 h after injection). (DAPI: blue; LRP1: green; phalloidin: magenta. Scale bars for the overview of porcine cochlear mid turn are 200 µm; others are 10 µm.)

Row | Kd (LRP1 [2]) | signal in the cochleae compared to brain and muscle (mouse cochleae) | transport into the inner ear of pigs (pig cochleae) | Compound | distribution in cochleae, free dye (LRP1 [1]) | ototoxicity (ABR thresholds) (C57BL/6J mice)
1 | – | – | – | CCN1\C(=C/C=C/C=C/C2=[N+](CCCCCC(=O)O)c3ccc4c(S(=O)(=O)O)cc(S(=O)(=O)O)cc4c3C2(C)C)C(C)(C)c2c1ccc1c(S(=O)(=O)[O-])cc(S(=O)(=O)O)cc21 [Cy5.5] | limited distribution inside blood vessels in the SV and SGN regions | –
2 | 738 nM | much stronger | could be transported into the inner ears | TFYGGRPKRNNFLRGIRSRGD [IETP2] | – | no obvious ototoxicity
